# Reference: patent US20220194938A1, “NOVEL COMPOUNDS AND PHARMACEUTICAL COMPOSITIONS THEREOF FOR THE TREATMENT OF INFLAMMATORY DISORDERS” (GALAPAGOS NV, priority 2019, published 2022)
# Read-outs that look alike come from different tables or passages of the source.
# Experiments:
# [1] = system: Collagen Induced Arthritis (CIA); test: Mouse collagen induced arthritis (CIA) model; type: in vivo; conditions: mouse CIA, 3, 10 and 30 mg/kg b.i.d., versus disease vehicle group
# Experimental: 5.1. CIA Model 5.1.1. Materials Completed Freund's adjuvant (CFA) and incomplete Freund's adjuvant (IFA) were purchased from Difco. Bovine collagen type II (CII), lipopolysaccharide (LPS), and Enbrel was obtained from Chondrex (Isle d'Abeau, France); Sigma (P4252, L'Isle d'Abeau, France), […] (25 mg injectable syringe, France) Acros Organics (Palo Alto, Calif.), respectively. All other reagents used were of reagent grade and all solvents were of analytical grade. 5.1.2. Animals DBA1/J mice (male, 7-8 weeks old) were obtained from Charles River Laboratories (France). Mice were kept on a 12 h light/dark cycle (07 h00-19 h00). Temperature was maintained at 22° C., and food and water were provided ad libitum. 5.1.3. Collagen Induced Arthritis (CIA) One day before the experiment, CII solution (2 mg/mL) was prepared with 0.05 M acetic acid and stored at 4° C. Just before the immunization, equal volumes of adjuvant (IFA) and CII were mixed by a homogenizer in a pre-cooled glass bottle in an ice water bath. Extra adjuvant and prolonged homogenization may be required if an emulsion was not formed. […] Body weight and clinical score, were recorded twice a week. […] Clinical Assessment of Arthritis Arthritis is scored according to the method of (Khachigian 2006; Lin et al. 2007; Nishida et al. 2004). […] Results For each readout, mean and sem were calculated. […]
# THP-1-Lucia NFκB cells = test: NFκB-reporter assay in THP1-Lucia NFκB cells (LPS, IL-1β, TNFα trigger); type: cell-based; conditions: 24 h
# Description: This assay was used to evaluate the IRAK4 selectivity and potency of the compounds of the invention upon IRAK4 dependent (LPS and IL-1β) and independent triggering (TNFα), in a THP1-Lucia NFκB reporter assay.
# THP-1-Lucia NFκB cells (Invivogen—5, rue Jean Rodier 31400 Toulouse France—cat #thp1-nfkb) were cultivated as recommended by the supplier using split cycles each cycle comprising a succession of thawing/expansion/seeding. The data reported were generated using cells having between 3 to 9 cycles. On the day of the experiment THP-1-Lucia NFκB cells were counted and seeded at a density of 1,000,000 cells/mL in culture medium (RPMI 1640 (Gibco, Cat #52400-025)+10% FBS (Sigma, Cat #F7524-500ML)+1% P/S (Gibco, Cat #15140-122)) by pipetting 54 μL/well in a 384 well plate. Thereafter, 6 μL of a 10× trigger solution was added to all wells, at final concentrations of 2.5, 10 and 3 ng/mL for respectively LPS, TNFα and IL-1β, except for ‘no trigger wells’ where 6 μL culture medium only was added.
# After trigger addition, compounds were added with a digital compound dispenser, in an 8-points concentration range, using 3-fold dilution steps and normalizing the final DMSO concentration to 0.2% DMSO in all wells.
# After 24 h incubation at 37° C., 5% CO2, 40 μL of supernatant was collected per well and transferred to a new 384 well plate that was then stored at −20° C. until further use.
# For the readout, supernatant samples were thawed on ice and 5 μL sample was transferred from each well to a new 384-well plate. 20 μL of Quanti-Luc solution (Quanti-Luc powder (Invivogen, Cat #rep-glc1) dissolved in 25 mL sterile water as indicated by the manufacturer) was added to each well after which luminescence was immediately measured on an Envision instrument.
# To measure the inhibition of LPS/TNFα/IL-1β-induced NFκB-reporter activity, percentage inhibition (PIN) values were calculated for all concentrations tested, compared to controls. […]
"EC50 (THP-1-Lucia NFκB cells; IL-1β 3 ng/mL, read-out: IL-1β driven NFκB-reporter activity, average pEC50 (converted)) [nM]","EC50 (THP-1-Lucia NFκB cells; LPS 2.5 ng/mL, read-out: LPS driven NFκB-reporter activity, average pEC50 (converted)) [nM]",Compound,effect on bone erosion Larsen Score [1],TNFα mediated NFκB-reporter activity (THP-1-Lucia NFκB cells; TNFα 10 ng/mL)
–,–,"CNC(=O)c1cc2nc(CCC(C)(C)O)cn2cc1NC(=O)c1cccc(C(F)(F)F)n1 [Compound 2, 2-(3-hydroxy-3-methyl-butyl)-N-methyl-6-[[6-(trifluoromethyl)pyridine-2-carbonyl]amino]imidazo[1,2-a]pyridine-7-carboxamide]",statistically significant effect,–
63.1,316,"CCOc1c(NC(=O)c2cccn(C3CC3)c2=O)cn2cc(CCS(C)(=O)=O)nc2c1F [Compound 39, 1-cyclopropyl-N-[7-ethoxy-8-fluoro-2-(2-methylsulfonylethyl)imidazo[1,2-a]pyridin-6-yl]-2-oxo-pyridine-3-carboxamide]",–,no activity was observed
